How the values were obtained:
mice = assay: FTIR-generated paw luminance after intraplantar injection of capsaicin to the left hind paw; format: in vivo; settings: 180 minutes after intraplantar injection (5 μl, 0.1%) to the left hind paw; FIG. 14B
Procedure: FIG. 14C illustrates that the luminance values of left and right hind paws are no different in naïve mice 0-30 minutes after being placed in chamber.

mouse = assay: FTIR imaging of weight bearing after experimental induction of inflammatory pain in the left hind paw; format: in vivo; settings: mouse with induced inflammation in left hind paw, analgesic given before FTIR imaging; FIG. 8 at right
Description: FIG. 8 illustrates examples of FTIR recordings that detect analgesic efficacy, with great sensitivity. […] For example, the FTIR images are brighter in areas where there is greater relative pressure exerted by the hind paw than in areas where there is less relative pressure exerted.

Compound | FTIR paw luminance (weight bearing), uninjured right vs injected left hind paw (mice) | weight shift to the uninjured leg (FTIR imaging, analgesic efficacy) (mouse)
COc1cc(CNC(=O)CCCC/C=C/C(C)C)ccc1O [capsaicin] | significantly increased luminance (weight bearing) in the uninjured (right) paw compared to the capsaicin-injected left paw | 
O=C(O)Cc1ccccc1Nc1c(Cl)cccc1Cl [diclofenac] |  | does not shift its weight to the uninjured leg
